Ends that are not written are not given here.
Key:
Type in all cases: cell-based, rat
PC12 cells [1] = test: Cell adhesion assay on coated plates (crystal violet, absorbance 570 nm); details: 1 h, serum-free; for cell adhesion: PC12 cells on coated plates, laminin 5 μg/mL, rLG proteins 25 μg/mL, peptides 62.5 μg/mL (0 to 125 μg/mL in FIG. 2B)
Procedure: The cell adhesion assay was performed as described in a paper published previously by the present inventors (Kim, J. M., et al, Exp. Cell Res, 2005).
Specifically, 24-well culture plates (Nunc, Denmark) were coated with 5 μg/mL human placental laminin (Sigma-Aldrich, St. Louis, Mo.) or 25 μg/mL rLG domain proteins for 12 h at 4° C. The peptides were also coated on the plates by drying for 12 h at room temperature. The substrate-coated plates were blocked with 1% heat-inactivated bovine serum albumin (BSA) in PBS for 1 h at 37° C. and then washed with PBS.
The cells were trypsinized with trypsin/EDTA and resuspended in serum-free culture medium. The cells were added at a density of 2×10^5 cells/500 μL to each plate and incubated in serum-free culture medium for 1 h at 37° C. After incubation, unattached cells were removed by rinsing twice with PBS. The attached cells were fixed with 10% formalin for 15 min and then stained with 0.5% crystal violet for 1 h. Plates were gently washed with distilled water three times and dissolved with 2% SDS for 5 min. Absorbance was measured at 570 nm using a microplate reader (BioRad).
First, PC12 cells were cultured on plates coated with varying amounts of five kinds of Ln2-PG3 peptides and then cell adhesion was observed. The peptides were coated in concentrations ranging from 0 to 125 μg/mL on plates by drying them for 12 h at room temperature.
(§1) The present inventors compared the cellular activities of Ln2-LG3-P2 peptide to scrambled peptide (SEQ ID NO:20, NWEIRCIPGNPF) of Ln2-LG3-P2 peptide and Ln2-LG3-P1 peptide to Ln2-LG3-P5 peptide at a concentration of 62.5 μg/mL where the cell adhesion activity was the maximum. […] PC12 cells were cultured on plates which were coated in the same way for 3 h in serum-free medium and the cell spreading was observed.
(§2) Specifically, to observe cell adhesion, spreading, migration, and neurite outgrowth promotion, the methods described in Experimental examples <2-1> to <2-3> were used and PC12 cells were cultured on plates coated with laminin (5 μg/mL), rLG3 (25 μg/mL), and rLG3-M1 (25 μg/mL) and observed. To observe cell adhesion, PC12 cells were incubated on the coated plates for 1 h and to observe cell spreading, PC12 cells were incubated on the coated plates for 3 h. To observe cell migration, PC12 cells were incubated on the coated plates for […].
(§3) To measure cell adhesion, spreading, migration, and neurite outgrowth promotive activities of PC12 cells using the prepared synthetic peptides that are N- and C-terminal truncated or C-terminal added peptides of the Ln2-LG3-P2 peptide, peptides described in Table 1 were coated onto plates at 62.5 μg/mL and PC12 cells were seeded thereon.

PC12 cells [2] = test: Cell spreading assay on coated plates (cell surface area); details: 3 h, laminin 5 μg/mL, rLG proteins 25 μg/mL, peptides 62.5 μg/mL
Procedure: To determine cell spreading assays, the cells cultured on plates coated with each rLG domain protein for 1 h or 3 h in Experimental example <2-1> were fixed with 10% formalin. Then, the fixed cells were stained with 0.05% crystal violet for 1 h and plates were gently washed with PBS three times. The surface area of cells was measured with Image-Pro plus software (Version 4.5; Media Cybernetics, Silver Spring, Md.).
as §1, §2, §3

PC12 cells [3] = test: Cell migration assay (transwell migration chambers); details: transwell filters coated with laminin 5 μg/mL, rLG proteins 25 μg/mL or peptides 62.5 μg/mL, 24 h
Procedure: Cell migration assays were performed using transwell migration chambers of 8 μm in pore size (Corning Inc., NY) as described in a paper published previously by the present inventors (Kim, J. M., Min, S. K., Kim, H., Kang, H. K., Jung, S. Y., Lee, S. H., Choi, Y., Roh, S., Jeong, D., and Min, B. M. (2007) Int. J. Mol. Med.).
The lower sides of transwell filters were coated with laminin (5 μg/mL) or rLG proteins (25 μg/mL) for 12 h at 4° C. The lower sides of transwell filters were blocked with 1% BSA in PBS for 1 h at 37° C. Cells were suspended at a density of 4×10^5 cells/mL in RPMI 1640 medium containing 0.5% FBS and 0.1% BSA. 100 μL of this suspension was seeded in the upper chamber of the transwell filter. Cells were allowed to migrate for 24 h at 37° C. and then fixed with 10% formalin for 15 min and stained with 0.5% crystal violet. Non-migrated cells in the upper chamber of transwell filters were removed with a cotton swab, viewed under a light microscope, and counted.
as §2

FAK Tyr-397 = test: FAK phosphorylation by western blotting; details: PC12 cells on coated dishes; 15, 30, 60 min
Procedure: For measuring FAK phosphorylation, specifically, PC12 cells were starved for 12 h by replacing RPMI 1640 medium with 0.1% FBS. PC12 cells (2×10^6 cells) were plated on 60-mm dishes precoated with laminin (5 μg/mL), rLG3 (25 μg/mL), or Ln2-LG3-P2 (25 μg/well), and allowed to adhere for the indicated times (15 min, 30 min, and 60 min). Cells were washed with ice-cold PBS and lysed with 200 μL of RIPA buffer (50 mM Tris-HCl, pH 7.4, 150 mM NaCl, 1 mM EDTA 1% Triton X-100, 1 mM PMSF, 2 mM Na3VO4, 1 mM glycerol phosphate) containing a protease inhibitor cocktail. RIPA lysates were denatured using SDS sample buffer (50 mM Tris/HCl, pH 6.8, 2% SDS, 10% glycerol, 0.1% bromophenol blue, 50 mM dithiothreitol) and analysed by SDS-PAGE. The separated proteins were electroblotted onto an Immobilon-P membrane (Millipore, Bedford, Mass.) and probed with primary antibodies to FAK Tyr-397 (Biosource, Camarillo, Calif.), FAK (Upstate Biotechnology Inc., Lake Placid, N.Y.). All blots were then detected with HRP-conjugated secondary antibodies (Cell Signaling). Signals were detected by ECL (iNtRON Biotechnology, Korea).

PKCδ = test: Tyrosine phosphorylation of PKCδ (immunoprecipitation and Western blotting); details: PC12 cells on coated dishes, 30 min
Procedure: PC12 cells were incubated on dishes coated with laminin, rLG3, or the Ln2-LG3-P2 peptide for 30 min and the interaction of PKCδ with phosphotyrosine was examined using immunoprecipitation and Western blotting.

## RNIPPFEGCIWN (RNIPPFEGCIWN-NH2; listed as Homo sapiens) [Ln2-LG3-P2, 12-mer peptide, position 2675 to 2686 in human laminin α2 chain]
PC12 cells [1]
  cell adhesion: promoted the cell adhesion
PC12 cells [1]; PC12 cells
  coating concentration at which cell adhesion activity reached the maximum level: 62.5 µg/mL
PC12 cells [2]
  cell spreading: comparable to that of rLG3
PC12 cells [3]
  cell migration: comparable to that of rLG3
FAK Tyr-397
  time at which FAK phosphorylation levels at Tyr-397 peaked: 15 min
PKCδ
  tyrosine phosphorylation of PKCδ: increased

## laminin [reference compound]
PC12 cells [1]
  cell adhesion: promoted cell adhesion
PC12 cells [2]
  cell spreading: promoted cell spreading
PC12 cells [3]
  cell migration: promoted cell migration
FAK Tyr-397
  time at which FAK phosphorylation levels at Tyr-397 peaked: 15 min
PKCδ
  tyrosine phosphorylation of PKCδ: increased

B1: rLG3: recombinant His6-tagged human laminin α2 chain LG3 domain, amino acids 2537 to 2745 (protein, listed as Homo sapiens)
chain: VELSPVPIDVGTEINLSFSTKNESGIILLGSGGTPAPPRRKRRQTGQAYYVILLNRGRLEVHLSTGARTMRKIVIRPEPNLFHDGREHSVHVERTRGIFTVQVDENRRYMQNLTVEQPIEVKKLFVGGAPPEFQPSPLRNIPPFEGCIWNLVINSVPMDFARPVSFKNADIGRCAHQKLREDEDGAAPAEIVIQPEPVPTPAFPTPTPV
modifications: His6 tag
PC12 cells [1]
  cell adhesion: adhered to rLG1, rLG3, and rLG4 in a dose-dependent manner
PC12 cells [2]
  cell spreading: induced cell spreading
PC12 cells [3]
  cell migration: induced cell migration significantly
FAK Tyr-397
  time at which FAK phosphorylation levels at Tyr-397 peaked: 15 min
PKCδ
  tyrosine phosphorylation of PKCδ: increased
